Laboratory results as given in paper PMC4359082 (Nature, 2014).

How the values were obtained:
[1] = target: T1, MrgprB2 (Mus musculus, UniProt Q3KNA1); assay: Calcium imaging in HEK293 cells expressing MrgprB2; type: cell-based; details: HEK293 cells heterologously expressing MrgprB2
T1 sequence (Q3KNA1 1-338): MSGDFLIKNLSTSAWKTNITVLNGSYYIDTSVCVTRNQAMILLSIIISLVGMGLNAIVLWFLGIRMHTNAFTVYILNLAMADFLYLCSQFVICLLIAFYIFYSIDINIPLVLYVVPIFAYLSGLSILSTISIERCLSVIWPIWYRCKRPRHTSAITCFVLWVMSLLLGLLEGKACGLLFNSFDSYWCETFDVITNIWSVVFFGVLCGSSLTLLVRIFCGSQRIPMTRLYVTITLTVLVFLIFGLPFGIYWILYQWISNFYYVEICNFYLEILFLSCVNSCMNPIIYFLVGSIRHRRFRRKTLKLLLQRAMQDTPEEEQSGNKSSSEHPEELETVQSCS

[2] = Drug preparation and storage: stability of solutions; type: physicochemical; details: solutions prepared on the day of the experiment
[3] = system: mouse peritoneal mast cells; assay: Mouse peritoneal mast cell histamine release assay; type: cell-based; details: 5 minutes, room temperature; HTRF histamine assay

| Molecule | response of MrgprB2-HEK cells ([Ca2+]i) [1] | stability of potency of drug solutions [2] | histamine release from WT peritoneal mast cells (MrgprB2MUT mast cells released substantially less) [3] |
| --- | --- | --- | --- |
| CCN(CC)CCCC(C)Nc1ccnc2cc(Cl)ccc12 (stereo not shown) [CQ, chloroquine] | no response | – | – |
| COc1cc2c3cc1Oc1cc(ccc1O)C[C@@H]1c4c(cc(OC)c(O)c4Oc4ccc(cc4)C[C@@H]3N(C)CC2)CC[N+]1(C)C [tubocurarine] | – | susceptible to oxidation and/or freeze-thaw effects | – |
| COc1cc2c(cc1OC)[C@@H](Cc1cc(OC)c(OC)c(OC)c1)[N+](C)(CCCOC(=O)CC/C=C/CCC(=O)OCCC[N+]1(C)CCc3cc(OC)c(OC)cc3[C@H]1Cc1cc(OC)c(OC)c(OC)c1)CC2 (stereo partly shown) [mivacurium] | – | susceptible to oxidation and/or freeze-thaw effects | – |
| O=C(O)c1cn(C2CC2)c2cc(N3CCNCC3)c(F)cc2c1=O [Ciprofloxacin, ciprofloxacin] | – | – | induced histamine release |
| COc1ccc(CC2c3cc(OC)c(OC)cc3CC[N+]2(C)CCC(=O)OCCCCCOC(=O)CC[N+]2(C)CCc3cc(OC)c(OC)cc3C2Cc2ccc(OC)c(OC)c2)cc1OC (stereo not shown) [Atracurium, atracurium] | – | susceptible to oxidation and/or freeze-thaw effects | induced histamine release |
| icatibant | – | – | induced histamine release |
